# Laboratory results from patent US9637473B2, “Acrylamide derivatives as antimalarial agents” (priority 2013, dated 2017).
# Tested on: P. Falciparum NF54
# Assay: Plasmodium falciparum in vitro assay ([3H]-hypoxanthine incorporation)
# Assay type: cell-based
# Settings: Plasmodium falciparum, Erythrocyte, P. Falciparum NF54, erythrocytic stages in human red blood cells, 50% human serum
# Experimental: In Vitro Antimalarial Activity: Plasmodium falciparum In Vitro Assay: In vitro activity against erythrocytic stages of P. Falciparum in human red blood cells is determined using a [^3H]-hypoxanthine incorporation assay. One strain sensitive to all drugs (P. […] After 48 hours, [^3H]-hypoxanthine (0.5 μCi) is added to each well of a plate. The plates are incubated for a further 24 hours under the same conditions then harvested with a Betaplate cell harvester (Wallac) and washed with distilled water. The dried filters are inserted into a plastic foil with 10 mL of scintillation fluid and counted in a Betaplate liquid scintillation counter. IC50 values are calculated from sigmoidal inhibition curves using Microsoft Excel.
row,IC50 [nM],SMILES
1,72,"CN(c1ccncc1)c1ccc(CN(C(=O)/C=C/c2ccc(C(F)(F)F)cc2)C2CCN(Cc3ccc(C(F)(F)F)cc3)CC2)cc1 [Example 3, (E)-N-[4-(Methyl-pyridin-4-yl-amino)-benzyl]-N-[1-(4-trifluoromethyl-benzyl)-piperidin-4-yl]-3-(4-trifluoromethyl-phenyl)-acrylamide]"
2,133,"Cc1nc(CN2CCC(N(Cc3ccc(N(C)c4ccncc4)cc3)C(=O)/C=C/c3ccc(C(F)(F)F)cc3)CC2)co1 [Example 4, (E)-N-[1-(2-Methyl-oxazol-4-ylmethyl)-piperidin-4-yl]-N-[4-(methyl-pyridin-4-yl-amino)-benzyl]-3-(4-trifluoromethyl-phenyl)-acrylamide]"
3,11,"CN(c1ccncc1)c1ccc(CN(C(=O)/C=C/c2ccc(C(F)(F)F)cc2)C2CCN(C3CCCC3)CC2)cc1 [Example 5, (E)-N-(1-Cyclopentyl-piperidin-4-yl)-N-[4-(methyl-pyridin-4-yl-amino)-benzyl]-3-(4-trifluoromethyl-phenyl)-acrylamide]"
4,58,"CN(c1ccncc1)c1ccc(CN(C(=O)/C=C/c2ccc(C(F)(F)F)cc2)C2CCN(Cc3ccccc3)CC2)cc1 [Example 6, (E)-N-(1-Benzyl-piperidin-4-yl)-N-[4-(methyl-pyridin-4-yl-amino)-benzyl]-3-(4-trifluoromethyl-phenyl)-acrylamide]"
5,26,"CCN1CCC(N(Cc2ccc(N(C)c3ccncc3)cc2)C(=O)/C=C/c2ccc(C(F)(F)F)cc2)CC1 [Example 7, (E)-N-(1-Ethyl-piperidin-4-yl)-N-[4-(methyl-pyridin-4-yl-amino)-benzyl]-3-(4-trifluoromethyl-phenyl)-acrylamide]"
6,43,"CC(C)CCN1CCC(N(Cc2ccc(N(C)c3ccncc3)cc2)C(=O)/C=C/c2ccc(C(F)(F)F)cc2)CC1 [Example 8, (E)-N-[1-(3-Methyl-butyl)-piperidin-4-yl]-N-[4-(methyl-pyridin-4-yl-amino)-benzyl]-3-(4-trifluoromethyl-phenyl)-acrylamide]"
7,27,"CN(c1ccncc1)c1ccc(CN(C(=O)/C=C/c2ccc(C(F)(F)F)cc2)C2CCN(CC3CC3)CC2)cc1 [Example 9, (E)-N-(1-Cyclopropylmethyl-piperidin-4-yl)-N-[4-(methyl-pyridin-4-yl-amino)-benzyl]-3-(4-trifluoromethyl-phenyl)-acrylamide]"
8,14,"CN(c1ccncc1)c1ccc(CN(C(=O)/C=C/c2ccc(C(F)(F)F)cc2)C2CCN(CC3CC4C=CC3C4)CC2)cc1 (stereo not drawn) [Example 10, (E)-N-(1′-Bicyclo[2.2.1]hept-5-en-2-ylmethyl-piperidin-4-yl)-N-[4-(methyl-pyridin-4-yl-amino)-benzyl]-3-(4-trifluoromethyl-phenyl)-acrylamide]"
9,84,"CN(c1ccncc1)c1ccc(CN(C(=O)/C=C/c2ccc(C(F)(F)F)cc2)C2CCN(Cc3ccc(Cl)c(Cl)c3)CC2)cc1 [Example 11, (E)-N-[1-(3,4-Dichloro-benzyl)-piperidin-4-yl]-N-[4-(methyl-pyridin-4-yl-amino)-benzyl]-3-(4-trifluoromethyl-phenyl)-acrylamide]"
10,29,"Cc1ccc(CN2CCC(N(Cc3ccc(N(C)c4ccncc4)cc3)C(=O)/C=C/c3ccc(C(F)(F)F)cc3)CC2)cc1 [Example 12, (E)-N-[1-(4-Methyl-benzyl)-piperidin-4-yl]-N-[4-(methyl-pyridin-4-yl-amino)-benzyl]-3-(4-trifluoromethyl-phenyl)-acrylamide]"
11,50,"COc1ccc(CN2CCC(N(Cc3ccc(N(C)c4ccncc4)cc3)C(=O)/C=C/c3ccc(C(F)(F)F)cc3)CC2)cc1 [Example 13, (E)-N-[1-(4-Methoxy-benzyl)-piperidin-4-yl]-N-[4-(methyl-pyridin-4-yl-amino)-benzyl]-3-(4-trifluoromethyl-phenyl)-acrylamide]"
12,55,"CN(c1ccncc1)c1ccc(CN(C(=O)/C=C/c2ccc(C(F)(F)F)cc2)C2CCN(CCc3ccccc3)CC2)cc1 [Example 14, (E)-N-[4-(Methyl-pyridin-4-yl-amino)-benzyl]-N-(1-phenethyl-piperidin-4-yl)-3-(4-trifluoromethyl-phenyl)-acrylamide]"
13,41,"CN(c1ccncc1)c1ccc(CN(C(=O)/C=C/c2ccc(C(F)(F)F)cc2)C2CCN(CC(c3ccccc3)c3ccccc3)CC2)cc1 [Example 15, (E)-N-[1-(2,2-Diphenyl-ethyl)-piperidin-4-yl]-N-[4-(methyl-pyridin-4-yl-amino)-benzyl]-3-(4-trifluoromethyl-phenyl)-acrylamide]"
14,154,"CN(c1ccncc1)c1ccc(CN(C(=O)/C=C/c2ccc(C(F)(F)F)cc2)C2CCN(CCC(F)(F)F)CC2)cc1 [Example 16, (E)-N-[4-(Methyl-pyridin-4-yl-amino)-benzyl]-3-(4-trifluoromethyl-phenyl)-N-[1-(3,3,3-trifluoro-propyl)-piperidin-4-yl]-acrylamide]"
15,180,"CN(c1ccncc1)c1ccc(CN(C(=O)/C=C/c2ccc(C(F)(F)F)cc2)C2CCN(Cc3ccnn3C)CC2)cc1 [Example 17, (E)-N-[1-(2-Methyl-2H-pyrazol-3-ylmethyl)-piperidin-4-yl]-N-[4-(methyl-pyridin-4-yl-amino)-benzyl]-3-(4-trifluoromethyl-phenyl)-acrylamide]"
16,51,"CN(c1ccncc1)c1ccc(CN(C(=O)/C=C/c2ccc(C(F)(F)F)cc2)C2CCN(Cc3cnn(-c4ccccc4)c3)CC2)cc1 [Example 18, (E)-N-[4-(Methyl-pyridin-4-yl-amino)-benzyl]-N-[1-(1-phenyl-1H-pyrazol-4-ylmethyl)-piperidin-4-yl]-3-(4-trifluoromethyl-phenyl)-acrylamide]"
17,54,"CN(c1ccncc1)c1ccc(CN(C(=O)/C=C/c2ccc(C(F)(F)F)cc2)C2CCN(Cc3cncn3C)CC2)cc1 [Example 19, (E)-N-[1-(3-Methyl-3H-imidazol-4-ylmethyl)-piperidin-4-yl]-N-[4-(methyl-pyridin-4-yl-amino)-benzyl]-3-(4-trifluoromethyl-phenyl)-acrylamide]"
18,256,"CN(c1ccncc1)c1ccc(CN(C(=O)/C=C/c2ccc(C(F)(F)F)cc2)C2CCN(Cc3ncc4ccccn34)CC2)cc1 [Example 20, (E)-N-(1-Imidazo[1,5-a]pyridin-3-ylmethyl-piperidin-4-yl)-N-[4-(methyl-pyridin-4-yl-amino)-benzyl]-3-(4-trifluoromethyl-phenyl)-acrylamide]"
19,355,"CN(c1ccncc1)c1ccc(CN(C(=O)/C=C/c2ccc(C(F)(F)F)cc2)C2CCN(Cc3nc4ccccc4n3C)CC2)cc1 [Example 21, (E)-N-[1-(1-Methyl-1H-benzoimidazol-2-ylmethyl)-piperidin-4-yl]-N-[4-(methyl-pyridin-4-yl-amino)-benzyl]-3-(4-trifluoromethyl-phenyl)-acrylamide]"
20,176,"CN(c1ccncc1)c1ccc(CN(C(=O)/C=C/c2ccc(C(F)(F)F)cc2)C2CCN(Cc3ccccn3)CC2)cc1 [Example 22, (E)-N-[4-(Methyl-pyridin-4-yl-amino)-benzyl]-N-(1-pyridin-2-ylmethyl-piperidin-4-yl)-3-(4-trifluoromethyl-phenyl)-acrylamide]"
21,123,"CN(c1ccncc1)c1ccc(CN(C(=O)/C=C/c2ccc(C(F)(F)F)cc2)C2CCN(Cc3cccnc3)CC2)cc1 [Example 23, (E)-N-[4-(Methyl-pyridin-4-yl-amino)-benzyl]-N-(1-pyridin-3-ylmethyl-piperidin-4-yl)-3-(4-trifluoromethyl-phenyl)-acrylamide]"
22,328,"Cc1ncc(CN2CCC(N(Cc3ccc(N(C)c4ccncc4)cc3)C(=O)/C=C/c3ccc(C(F)(F)F)cc3)CC2)cn1 [Example 24, (E)-N-[4-(Methyl-pyridin-4-yl-amino)-benzyl]-N-[1-(2-methyl-pyrimidin-5-ylmethyl)-piperidin-4-yl]-3-(4-trifluoromethyl-phenyl)-acrylamide]"
23,41,"CN(c1ccncc1)c1ccc(CN(C(=O)/C=C/c2ccc(C(F)(F)F)cc2)C2CCN(Cc3ccn4ccnc4c3)CC2)cc1 [Example 25, (E)-N-(1-Imidazo[1,2-a]pyridin-7-ylmethyl-piperidin-4-yl)-N-[4-(methyl-pyridin-4-yl-amino)-benzyl]-3-(4-trifluoromethyl-phenyl)-acrylamide]"
24,14,"CN1CCC(N2CCC(N(Cc3ccc(N(C)c4ccncc4)cc3)C(=O)/C=C/c3ccc(C(F)(F)F)cc3)CC2)CC1 [Example 26, (E)-N-(1′-Methyl-[1,4′]bipiperidinyl-4-yl)-N-[4-(methyl-pyridin-4-yl-amino)-benzyl]-3-(4-trifluoromethyl-phenyl)-acrylamide]"
25,64,"CN(c1ccncc1)c1ccc(CN(C(=O)/C=C/c2ccc(C(F)(F)F)cc2)C2CCN(Cc3ccc(C#N)cc3)CC2)cc1 [Example 27, (E)-N-[1-(4-Cyano-benzyl)-piperidin-4-yl]-N-[4-(methyl-pyridin-4-yl-amino)-benzyl]-3-(4-trifluoromethyl-phenyl)-acrylamide]"
26,44,"CC(=O)n1cc(CN2CCC(N(Cc3ccc(N(C)c4ccncc4)cc3)C(=O)/C=C/c3ccc(C(F)(F)F)cc3)CC2)c2ccccc21 [Example 28, (E)-N-[1-(1-Acetyl-1H-indol-3-ylmethyl)-piperidin-4-yl]-N-[4-(methyl-pyridin-4-yl-amino)-benzyl]-3-(4-trifluoromethyl-phenyl)-acrylamide]"
27,296,"CN(c1ccncc1)c1ccc(CN(C(=O)/C=C/c2ccc(C(F)(F)F)cc2)C2CCN(Cc3ncccn3)CC2)cc1 [Example 29, (E)-N-[4-(Methyl-pyridin-4-yl-amino)-benzyl]-N-(1-pyrimidin-2-ylmethyl-piperidin-4-yl)-3-(4-trifluoromethyl-phenyl)-acrylamide]"
